Source: patent US20240335466A1, “NICOTINAMIDE MONONUCLEOTIDE DERIVATIVES FOR USE IN THE TREATMENT OF SAPHO SYNDROME” (NUVAMID SA, priority 2021, published 2024)

Tests used:
[1] = system: patient suffering from SAPHO syndrome; assay: Case report: oral NMN in a patient with SAPHO syndrome, BASFI self-assessment questionnaire; type: in vivo, human; conditions: one patient
Protocol: (§1) This case report investigated the effects of nicotinamide mononucleotide derivatives according to the invention in a patient suffering from SAPHO syndrome. Especially, the effects of nicotinamide mononucleotide (NMN), i.e. compound 001, were investigated. NMN was orally administered at a dose of 500 mg/day, once a day in the morning, for 12 months. The patient reported that SAPHO syndrome manifested with osteitis in the upper right chest area managed with NSAIDs. At the start of the treatment, the patient reported strong pain and swelling (7.5/10) in joints affected by the disease. The patient also suffered from fatigue. In the absence of SAPHO syndrome specific questionnaire, efficacy of the treatment was assessed using self-assessment questionnaires: the Bath Ankylosing Spondylitis Disease Activity Index (BASDAI) which is the gold standard for measuring and following disease activity in Ankylosing Spondylitis, and the Bath Ankylosing Spondylitis Functional Index (BAFSI) for measuring and monitoring functional ability in patients with ankylosing spondylitis. […] Evaluation was performed before start of the treatment, and after 12 months of treatment.

[2] = system: patient suffering from SAPHO syndrome; assay: Case report: oral NMN in a patient with SAPHO syndrome, BASDAI self-assessment questionnaire; type: in vivo, human; conditions: one patient
Protocol: as §1

SMILES: NC(=O)c1ccc[n+]([C@@H]2O[C@H](COP(=O)([O-])O)[C@@H](O)[C@H]2O)c1 [NMN, nicotinamide mononucleotide]
- BASFI score after NMN ([1]; 500 mg/day oral once a day, after 12 months, before NMN: 2.4): 2.1
- BASFI item: physically demanding activities, score ([1]; 500 mg/day oral, after one year treatment, before treatment 7/10): 4.5 /10
- BASDAI score after NMN ([2]; 500 mg/day oral once a day, after 12 months, before NMN: 5.4, scores of 4 or greater suggest suboptimal control of disease): 3
- effect on fatigue, pain and swelling of the joints and discomfort (BASDAI items) ([2]; 500 mg/day oral, 12 months, before: pain and swelling 7.5/10, fatigue 6.5/10, discomfort 6.5/10): significantly improved fatigue, pain and swelling of the joints and discomfort
